{
  "source": "patent US8486924B2",
  "about": "“Taxane delivery system” (Celator Pharmaceuticals, Inc., priority 2007, dated 2013)",
  "key": {"[1]": {"conditions": "prodrug/POPC/2.5kPS3k (1:1:2) nanoparticles in water; volume weighted average", "procedure": "The prodrug, co-lipid and stabilizer polymers (typically on a 1:1:2 w/w basis) were dissolved in ethanol/THF (4:1) at a concentration of 40 mg/ml. The solvent was rapidly diluted with water using a four port CVIJ mixer^13, 14 with flow rates set at […] (solvent/water/water/water). Flow rates were controlled using Harvard Apparatus PHD2000 syringe pumps. The resultant solution was then dialyzed against water to remove residual solvent. […] When higher concentrations were required the dialyzed solution was diluted with equi-volumes of 600 mM sucrose and then concentrated using a 100 kD, 0.5 mm lumen, 60 cm path length MidGee hoop cartridge (GE Healthcare Life Sciences, Piscataway, N.J.) with a peristaltic pump. Particle size was determined using a Malvern Zetasizer Nano-ZS particle sizer and reported as volume weighted data.\nFormulations were composed of a prodrug, a co-lipid and an amphipathic stabilizer in a weight ratio of 1:1:2, respectively at a concentration of 40 mg per mL of solvent. […] Poly(ethylene glycol)-b-polystyrene (2kPS3k or 2.5kPS3k) was used as the amphipathic stabilizer. Other stabilizers may also be used."}, "[2]": {"conditions": "co-lipid POPC, prodrug/co-lipid/2.5kPS3k (1:1:2), vortexing 30 seconds", "procedure": "The physical stability of formulations was investigated by examining changes in particle size after vortexing prodrug/co-lipid/2.5kPS3k (1:1:2) nanoparticles in water, 150 mM saline or 300 mM sucrose (Table 1). […] The increase in particle size was monitored by using dynamic light scattering to measure the Z average (the intensity weighted mean size of the particle distribution) value for samples before and after vigorous vortexing. The change in the Zave value was used as surrogate readout for the formation of aggregates or precipitates resulting from mechanical instability, where a higher value for ΔZave indicated a higher level of aggregation or precipitation (Table 1)."}, "[3]": {"test_system": "HT29 human colon carcinoma cells", "procedure": "Female athymic nude mice (7-8 weeks old) were inoculated subcutaneously with 100 μl HT29 human colon carcinoma cells (2×10^6 cells) using a 26 gauge needle. Mice were randomly grouped (n=6/group) with a mean tumor size between 80 and 120 mg prior to first treatment. […] Subsequent injections were made according to the designated schedule. Tumor length and width measurements, body weight and in life observations were recorded 2-3 times per week. Tumor weight was calculated according to the formula (L×W^2)/2.\nThe relative efficacies of nanoparticle formulations of 1, 2, 4, 5, 6 and 7 were determined in the HT29 model using a 36 μmol/kg dose on a Q4Dx6 schedule (FIG. 3). Saline was used as a negative control.\n(§1) The activity of 7 in POPC/2.5kPS3k nanoparticle formulations relative to paclitaxel was determined by comparing the efficacy of doses ranging from 0.25 to 3 mole equivalents of paclitaxel (FIG. 4) in the HT29 tumor model. Taxol® dosed at 23 μmol/kg on a Q2Dx5 schedule was used as a positive control.\nThe tumor growth data was analyzed by two methods to determine what dose of 7 would be equivalent to the Taxol® positive control."}, "[4]": {"assay": "Maximum tolerated dose on Q2D schedule in HT29 tumor model", "assay_type": "in vivo, mice", "conditions": "POPC/2.5kPS3k nanoparticle formulation; Q2Dx5 schedule", "procedure": "as §1, with “control. The dosing regime was chosen since the greatest efficacy for 7 was observed on a Q2D schedule, which was also optimal for Taxol®, and the maximum tolerated treatment course at this Taxol® dose was 5 injections. The maximum tolerate dose of 7 on this schedule was approximately 3 paclitaxel equivalents (69 μmol/kg).” for “control.”"}, "[5]": {"test_system": "MCF-7 human tumor cell line", "conditions": "read-out: IC50 values MCF-7; prodrug/POPC/2kPS3k (1:1:2) formulations; 72 hours; MTT; ± SD"}, "[6]": {"conditions": "mouse, in vivo", "quoted_text": "Athymic nude mice (n=3/timepoint) were injected iv with test samples (10 μl/g body weight, to a maximum of 250 μl). Blood was collected at the designated time point by cardiac puncture and placed into EDTA coated microtainer tubes (BD Biosciences). The tubes were centrifuged at 2800 rpm for 10 minutes. Plasma was recovered and 50 μl aliquots analyzed by HPLC for drug content. Samples containing ^3H—CHE (50 μl) were diluted with PicoFluor40™ scintillation fluid (Packard) and counted on a Beckman-Coulter LS 6500 Multipurpose scintillation counter. The total drug (counts) per mouse in the blood compartment was calculated assuming a plasma volume of 0.04125 mL per gram of body weight.\nElimination studies tracking both the prodrug and the particle were conducted to obtain a more accurate description of the partitioning behavior of the prodrugs in vivo (FIG. 1). Prodrug elimination was followed by HPLC, while particle elimination rates were determined by labeling nanoparticles with tritiated cholesterylhexadecyl ether (3H—CHE).\nFormulations comprised of 1/VES/2kPS3k (1:1:2) and 2/VES/2kPS3k (1:1:2) were labeled with trace amounts of ^3H—CHE and plasma levels of both the label and prodrug were monitored in Foxn1^nu mice (FIG. 1, Panel A).\nEffect of prodrug partitioning on plasma drug elimination was determined. The prodrug panel was screened using prodrug/POPC/2kPS3k (1:1:2) nanoparticles in Foxn1^nu mice to determine elimination rates for the different prodrug conjugates (FIG. 2). […] Conjugates were formulated at a concentration of 0.7 mg/mL.\nIn order to estimate the partitioning half-life for each prodrug, it was assumed that 1 tracked the particle elimination rate based on the results discussed above. The elimination of all other prodrugs were then fitted to four parameter double exponential decay curves and normalized against 1."}, "[7]": {"test_system": "A2780 human tumor cell line", "assay": "MTT growth inhibition, A2780 cells, 72 hours", "conditions": "read-out: IC50 values A2780, prodrug/POPC/2kPS3k (1:1:2) formulations, ± SD"}},
  "data": [
    {"smiles": "CCCCCCCCCCCCCCCCCCCCCCOC(=O)COCC(=O)OC(C(=O)OC1CC2(O)C(OC(=O)c3ccccc3)C3C4(OC(C)=O)COC4CC(O)C3(C)C(=O)C(OC(C)=O)C(=C1C)C2(C)C)C(NC(=O)c1ccccc1)c1ccccc1", "note": "(stereo not shown) [Prodrug 7, 2′-O-(5″-O-docosanyldiglycoloyl)-paclitaxel]", "values": [
      {"measurement": "Diameter", "setting": "[1]", "value": 23, "unit": "nm"},
      {"measurement": "ΔZave 150 mM saline", "setting": "[2]; 150 mM saline", "value": 24, "unit": "nm"},
      {"measurement": "ΔZave 300 mM sucrose", "setting": "[2]; 300 mM sucrose", "value": 0, "unit": "nm"},
      {"measurement": "ΔZave water", "setting": "[2]; water", "value": 18, "unit": "nm"},
      {"measurement": "dose achieving parity with Taxol (delay in reaching tumor size of 125 mg from start of treatment)", "setting": "[3]; HT29, Q2Dx5, fitted curve, normalized to Taxol 23 μmol/kg", "value": "1.75 dose equivalents of paclitaxel"},
      {"measurement": "dose achieving parity with Taxol (delay in reaching tumor size of 300 mg relative to saline)", "setting": "[3]; HT29, Q2Dx5, linear dose response, normalized to Taxol 23 μmol/kg", "value": 1.65, "unit": "paclitaxel equivalents"},
      {"measurement": "dose achieving equivalent efficacy to Taxol at MTD", "setting": "[3]; HT29, titration 0.25x to 3x paclitaxel equivalents", "value": "approximately 1.7 paclitaxel equivalents"},
      {"measurement": "tumor size at day 60", "setting": "[3]; HT29, treated at MTD, Q2Dx5", "value": "below 50 mg"},
      {"measurement": "treatment induced delay in reaching a mean tumor size of 500 mm^3", "setting": "[3]; HT29 model, 36 μmol/kg, Q4Dx6, nanoparticle formulations", "value": 17, "unit": "days"},
      {"measurement": "maximum tolerated dose", "setting": "[4]", "value": 69, "unit": "µmol/kg"},
      {"measurement": "IC50", "setting": "[5]", "value": "23.5 ± 1.3", "unit": "nM"},
      {"measurement": "partitioning half life", "setting": "[6]", "value": "~10", "unit": "h"},
      {"measurement": "IC50", "setting": "[7]", "value": "29.5 ± 5.2", "unit": "nM"}
    ]}
  ]
}
